Test results published in patent US9254266B2, “Inhibiting surface enhanced crystallization of amorphous pharmaceuticals with ultrathin coatings” (Wisconsin Alumni Research Foundation, priority 2007, dated 2016).
In brackets after ≈: the same amount, converted by molar mass.

Assays:
Type in all cases: physicochemical
[1] = Solubility of γ IMC in buffer; settings: aqueous buffer, thermodynamic from solid; 0.1 M PBS buffer pH 7.2, 37° C.
[2] = Intrinsic dissolution rate (IDR), USP Dissolution Apparatus II; settings: 0.1 M phosphate buffer pH 7.2, 37° C.; for IDR: 50 RPM, first 15 minutes, no storage
Protocol: Measurement of intrinsic dissolution rate (IDR). The IDR was measured using a USP Dissolution Apparatus II (rotating paddle, model RC-8D, Vanguard, Spring, Tex.) following standard procedures. […] Tablets without visible chipping or surface imperfection were used for dissolution measurement. Each tablet used for IDR measurement was coated on one side and around the rim with water-impervious shellac (clear nail polish) that contained as the primary ingredient tosylamide epoxy resin. Conditions of the IDR measurement were as follows: 500 ml of 0.1 M phosphate buffer (pH 7.2), 50 RPM of paddle speed, 1 inch between the tablet and the paddle, and 37° C. Samples were taken every 2.5 minutes up to 15 minutes, every 5 minutes up to 30 minutes, and every 10 minutes up to 60 minutes. Each sample (2 ml) of the solution was drawn with a syringe and filtered through a 0.22-μm filter needle. The sample's concentration was determined by UV-visible spectrometry at 318 nm. The analyzed solution was returned to the dissolution vessel to maintain the constant volume. For each amorphous IMC material studied (with and without coating, with and without aging), the IDR measurement was performed six times with three independently prepared materials as described above.
As shown above in FIG. 4, because one layer of PDDA was nearly as effective as several layers of PDDA and PSS in inhibiting surface crystallization, this example used materials coated with a single layer of PDDA. Moreover, thinner coatings are expected to maximize the rate of dissolution. […] For comparison, the IDR of γ IMC was also measured. Each data point in FIG. 8 is the average of six measurements. For each sample of amorphous IMC (uncoated or coated), the six measurements were performed with three independently prepared materials (including melting, grinding, coating, and tableting). […] Similarly, it is assumed that the IDR of amorphous IMC was measured under a sink condition.

[3] = Zeta potential of IMC particles; settings: particles suspended in 0.01 M NaCl
Protocol: Zeta potentials were measured with a ZetaSizer 3000HSA (Malvern Instruments, USA). Sample particles (ca. 5 mg) were dispersed in 0.01 M NaCl. […] Each reported result was the average of three measurements.
Before coating amorphous IMC by this method, the sign of its surface charge in a coating solution was determined. […] (The pH of the coating solutions was 6.1 (PDDA) and 6.4 (PSS)). […] Coating with one layer of PDDA reversed the surface charge to positive (ζ-potential=+37 mV); adding the next layer (PSS) reversed the surface charge to negative again (ζ-potential=−32 mV); and so on.

[4] = Water contact angle on amorphous IMC film; settings: 22° C., 70% R.H.
Protocol: Contact Angle Measurements. The measurements were performed at 22° C. and 70% R.H. using a method similar to that of Zografi and Tam. […] The water droplet thus formed was about 3 mm in diameter. A side view of the droplet was recorded with a digital camera and the contact angle was measured from the image (Image J1.34 S). Each amorphous film was measured three times at different sites. Three samples were measured for each coating condition.
The water contact angle characterizes the wetting ability of the surface. The measurement was performed with amorphous IMC films on microscope cover glasses. […] The contact angle increased and decreased accordingly with additional layers of PDDA and PSS.

[5] = Crystallization of amorphous IMC powder on storage (XRPD, DSC)
Protocol: The particles were sieved through to a 75 μm screen, transferred to a 200 ml beaker containing 100 ml of the PDDA solution, and kept in contact with the solution for 15 minutes. The suspension was filtered through #2 Whatman filter paper to remove the supernatant and washed with Milli-Q water. Vacuum was then applied to dry the particles for at least 3 hrs.
X-ray powder diffraction (XRPD). XRPD was performed with a Bruker D8 Advance X-ray diffractometer, which was equipped with a CuKα source (λ=1.54056 Å) operating at a tube load of 40 kV and 40 mA. The divergence slit size was 1 mm, the receiving slit, 1 mm, and the detector slit, 0.1 mm. Data was collected by a high-resolution Sol-X detector. Each sample was scanned between 2 and 40° (2θ) with a step size of 0.02° and a maximum scan rate of 3 s/step. The NIST standard SRM 1976 was used to check the instrument's calibration and performance. Samples of small quantities were analyzed on a Si(510) zero-background holder. Polarized light microscopy (PLM) was performed with a Nikon Optiphot Pol 2 microscope equipped with an Olympus video camera. The video image was calibrated against a 1-mm stage micrometer (100 divisions). Differential scanning calorimetry (DSC) was conducted in crimped Al pans using a TA Instruments Q1000 unit under 50 mL/min N2 purge.
The larger the exotherm, the greater the amorphous fraction before DSC analysis. […]

[6] = Surface crystallization and crystal growth of amorphous IMC films (light microscopy)
Protocol: Deposition of gold coatings. A Denton Vacuum Desk II (Denton Vacuum, Moorestown, N.J.) was used to deposit a gold coating on amorphous IMC. […] Under these conditions, the deposition rate was ca. 10 nm/30 s, providing a gold coating of about 10 nm in thickness. […] The coated film was golden and reflective. Deposition of LbL polyelectrolyte coatings on amorphous films. […] (Tg−20° C.), and gently removing one cover glass. To coat several films at once, they were loaded into a Teflon rack and immersed into the PDDA solution for 15 minutes. The samples were washed twice in Milli-Q water to remove the excess PDDA and immersed in the PSS solution. This procedure was repeated until the desired number of polymer layers was reached. The coated samples were left on a Whatman filter paper to remove the excess liquid on the slide and dried in a vacuum (0.4 mTorr) at 22° C. for 3 hrs. X-ray powder diffraction (XRPD). XRPD was performed with a Bruker D8 Advance X-ray diffractometer, which was equipped with a CuKα source (λ=1.54056 Å) operating at a tube load of 40 kV and 40 mA. The divergence slit size was 1 mm, the receiving slit, 1 mm, and the detector slit, 0.1 mm. Data was collected by a high-resolution Sol-X detector. Each sample was scanned between 2 and 40° (2θ) with a step size of 0.02° and a maximum scan rate of 3 s/step. The NIST standard SRM 1976 was used to check the instrument's calibration and performance. Samples of small quantities were analyzed on a Si(510) zero-background holder. Polarized light microscopy (PLM) was performed with a Nikon Optiphot Pol 2 microscope equipped with an Olympus video camera. The video image was calibrated against a 1-mm stage micrometer (100 divisions). Differential scanning calorimetry (DSC) was conducted in crimped Al pans using a TA Instruments Q1000 unit under 50 mL/min N2 purge. […] (Tg−2° C.). […] The crystals were birefringent. […] All samples were tested at 40° C. in a desiccator. […] Moreover, coating a partially crystallized sample with gold inhibited further crystallization. […] The set of experiments was again performed with amorphous IMC films prepared on microscope cover glasses. […] By contrast, only a small percentage of a coated surface was covered by crystals (white spots in the pictures) under the same conditions (FIG. 4b). Moreover, the crystals that did form on the coated surface grew much more slowly than those on the uncoated surface.

[7] = Flowability measurements and tablet properties of IMC powder
Protocol: Flowability measurements. […] To determine tapped density and compressibility, approximately 1.5 g of powder was poured into a 10-ml cylinder. The initial volume (V0) yielded the initial bulk density D0 (“fluff or poured bulk density”). The powder was then tapped for 5 minutes to obtain the final bulk volume (Vf) and the final bulk density Df (“equilibrium, tapped or consolidated bulk density”). The percent (%) compressibility (Carr's Index) was calculated from (Df−D0)/Df×100, which is another measure of powder flowability (% compressibility higher than 40% is thought to indicate a non-flowing, cohesive powder; % compressibility lower than 28% is thought to indicate a fluid to free-flowing powder).
Uncoated amorphous IMC powder was cohesive and flowed with difficulty, while the coated powder flowed more easily. For the uncoated powder, the angle of repose was 36°, signifying acceptable flowability.

Which solubility [1] does the source give for `COc1ccc2c(c1)c(CC(=O)O)c(C)n2C(=O)c1ccc(Cl)cc1` [γ IMC, 1-(p-chlorobenzoyl)-5-methoxy-2-methylindole-3-acetic acid] here?
Its solubility is 1500 µg/mL (≈ 4.19 mM).

What about the IDR [2] of the same compound?
Its IDR is 0.07 mg/cm^2/min.

And the ζ-potential [3]?
Its ζ-potential is “negatively charged”.

Which results are given for `COc1ccc2c(c1)c(CC(=O)O)c(C)n2C(=O)c1ccc(Cl)cc1` [amorphous IMC, 1-(p-chlorobenzoyl)-5-methoxy-2-methylindole-3-acetic acid]?
water contact angle [4]: 44 °; solid state of powder after 2 days (PXRD) ([5]; 2 days at 40° C., powder sieved through 75 μm): crystallized into γ IMC; DSC crystallization exotherm after 2 days ([5]; 2 days of storage at 40° C.): disappears; time until tablet began crystallizing to α IMC in the dissolution medium [2]: approximately 20 minutes; IDR ([2]; listed as Uncoated): 0.56 mg/cm^2/min; IDR after 2 d ([2]; after 2 days of storage at 40° C.): 0.10 mg/cm^2/min; ζ-potential [3]: −41 mV; surface crystallization in vacuum compared with desiccated ambient air ([6]; 0.4 mTorr and 22° C.): same rate of crystal growth; surface covered by crystals after 20 days ([6]; 15 μm films on cover glasses, 20 days at 40° C.): completely covered with crystals; crystallization of film between two cover glasses ([6]; below Tg (42° C.), no free surface): does not crystallize for months; appearance of crystals at free surface ([6]; one cover glass removed, 40° C.): crystals appear in days; coverage of free surface with crystals on storage ([6]; uncoated film, 40° C.): After two or three weeks, the surface was fully covered with crystals; % Compressibility ([7]; Carr's Index, (Df−D0)/Df×100): 42 ± 1%; angle of repose ([7]; powder): 36 °; angle of repose ([7]; powder sieved through 75 μm screen): 36.1 ± 2.3; Tapped Density ([7]; powder tapped for 5 minutes): 0.52 ± 0.03 g/mL; Tablet Bulk Density ([7]; tablets made with a Carver press): 1.07 ± 0.03 g/mL; Tablet Porosity ([7]; true density of 1.31 g/cm^3 used): 18 ± 2%
